# Reference: US4443619A, “Chlorocitric acids” (Hoffmann-La Roche Inc., priority 1981, dated 1984)
# Experiments:
# [1] = Effect of stereoisomers of chlorocitric acid on food consumption in meal-fed rats (Example 14); format: in vivo, Charles River female rats; conditions: mean ± S.E.
# Experimental: Animals were fasted 48 hr, then meal-fed the 70% glucose diet described by A. C. […] Following 5 to 12 days alimentation on the meal-feeding regimen, rats were dosed with the appropriate compounds orally by intubation 1/2 hr before the 3 hr meal. Food cups were weighed immediately after the meal. The control group consisted of 5 to 10 rats, while the experimental group consisted of 4 to 6 rats.
# [2] = Food consumption of three diets in meal-fed rats (Example 15); format: in vivo, Charles River female rats; conditions: mean ± S.E.
# Experimental: Charles River female rats (Charles River Breeding Laboratories, Wilmington, Mass.), weighing 170 to 200 g, were individually housed in wire-bottomed cages in a temperature-regulated (22° C.) light-controlled room (12 hr light, 6 a.m. to 6 p.m. and 12 hr dark, 6 p.m. to 6 a.m.). Animals were fasted 48 hr, then meal-fed the indicated diets from 8 to 11 a.m. Following 5 to 12 days alimentation on the meal-feeding regimen, rats were dosed with the appropriate compounds orally by intubation 1/2 hr before the 3 hr meal. Food cups were weighed immediately after the 1st, 2nd and 3rd hr of the meal. The control groups consisted of 8 to 10 rats and the experimental group considered of 5 to 6 rats.
# [3] = Anorectic activities of stereoisomers: 3-day food consumption and body weight gain in meal-fed rats; format: in vivo, Charles River female rats; conditions: 1.32 mmoles/kg oral, 3 days, mean ± S.E.
# Experimental: Charles River female rats (Charles River Breeding Laboratories, Wilmington, Mass.), weighing 196 to 210 g, were individually housed in wire-bottomed cages in a temperature-regulated (22° C.) light-controlled room (12 hr light, 6 a.m. to 6 p.m. and 12 hr dark, 6 p.m. to 6 a.m.). Animals were fasted 48 hr, then meal-fed a 70% glucose diet from 8 to 11 a.m. Following 5 to 12 days alimentation on the meal-feeding regimen, rats were dosed with the appropriate compounds orally by intubation 1/2 hr before the 3 hr meal for 3 days. The total food consumption and body weight gained during the 3 day period were determined. The control group consisted of 16 rats, while the experimental group consists of 8 rats.
# [4] = Body composition of meal-fed rats, 16 day study (Example 20); format: in vivo, Charles River female rats; conditions: 16 days
# Experimental: Two month old Charles River female rats (Charles River Breeding Laboratories, Wilmington, Mass.) were individually housed in wire-bottomedcages in a temperature-regulated (22° C.) light-controlled room (12 hr light, 6 a.m. to 6 p.m. and 12 hr dark, 6 p.m. to 6 a.m.). […] (1) control, (2) (-)-threo-chlorocitric acid (1.0 mmoles/kg, 227 mg/kg) administered by oral intubation 30 min before the 3 hr meal, and (3) (-)-threo-chlorocitric acid (1.1 mmoles/kg, 250 mg/kg as a dietary admixture for the 3 hr meal. Treatment was continued for 16 days. After 16 days of treatment, rats were killed by decapitation and blood was removed. […] C. Sullivan, et al, Am. J. Clinical Nutrition, 30 767 (1977). […] Total carcass lipid data are expressed in grams of percentages of carcass weight. An aliquot of saponified carcass extract was neutralized and total carcass nitrogen was determined using the Kjeldahl procedure described in "Hawks" Physiological Chemistry," B. L. Oser, ed., McGraw Book Co., New York, N.Y., 1965, page 1214. Carcass protein data are expressed in grams and percentages of carcass weight.
# Stomach Emptying = experiment: Effect on stomach emptying ([14C]glucose load) in rats (Example 25); format: in vivo; conditions: 0.33 mmoles/kg oral, 60 min after [14C]glucose load, mean ± S.E.
# Experimental: Rats were trained to consume a 3 hr 70% glucose meal from 8 a.m. to 11 a.m. daily. On the experimental day, compounds were administered orally by intubation 30 min before a [^14 C]glucose load was given also by intubation. […] Sixty minutes later the rats were killed by decapitation; blood and stomachs were collected on ice.
# Data are expressed as follows: dpm×10^3 per ml of serum and dpm×10^3 per stomach.
# [5] = Food intake in dogs, pyramiding oral doses (Examples 26 and 27); format: in vivo, beagle dogs
# Experimental: Twelve beagle dogs of both sexes weighing 7.6-12.2 kg were used for this test. The test compounds were contained in gelatin capsules for oral administration to two dogs of each sex. The animals were weighed and food consumption calculated daily excluding weekends throughout the test period. Each animal received 800 grams of diet daily consisting of 400 grams of Wayne pellet dog food mixed with 400 ml distilled water. The animals received pyramiding oral doses of the test compound over the three week period. On Monday and Tuesday of the first week the animals were weighed and food consumption was recorded (control). The animals received 3 mg/kg on Wednesday and 10 mg/kg on Friday of the first week. Doses of 30, 100 and 300 mg/kg were administered on Monday, Wednesday and Friday respectively during the second week. A final dose of 1000 mg/kg was administered on Monday of the third week.
# Food intake was determined by the procedure by pyramiding doses described in Example 26.
# [6] = 20% Corn Oil, 0.33 mmoles (75 mg)/kg oral
# [7] = 20% Corn Oil, 0.66 mmoles (150 mg)/kg oral
# [8] = 70% Glucose, 0.33 mmoles (75 mg)/kg oral
# [9] = 70% Glucose, 0.66 mmoles (150 mg)/kg oral
# [10] = Chow, 0.33 mmoles (75 mg)/kg oral
# [11] = Chow, 0.66 mmoles (150 mg)/kg oral
# [12] = dietary admixture, 1.1 mmoles (250 mg)/kg
# [13] = oral intubation, 1.0 mmoles (227 mg)/kg
# [14] = test day 20, no dose, (±) one animal, (+) and (-) two animals
smiles,measurement,setting,value
"O=C(O)C[C@@](O)(C(=O)O)[C@@H](Cl)C(=O)O [(-)-threo-Chlorocitric acid, (-)-threo-chlorocitric acid]",Food consumption,"[1]; 0.66 mmoles/kg oral, control 8.2 ± 1.2",4.8 ± 0.7 g
same,Food consumption,"[1]; 2.63 mmoles/kg oral, control 13.5 ± 0.8",2.2 ± 0.5 g
same,"Food intake, 1st hr",[2]; [6],4.0 ± 0.6 g
same,"Food intake, 2nd hr",[2]; [6],1.6 ± 1.1 g
same,"Food intake, 3rd hr",[2]; [6],1.3 ± 0.5 g
same,"Food intake, Total",[2]; [6],6.8 ± 1.6 g
same,"Food intake, 1st hr",[2]; [7],3.6 ± 0.6 g
same,"Food intake, 2nd hr",[2]; [7],2.2 ± 0.4 g
same,"Food intake, 3rd hr",[2]; [7],1.3 ± 0.4 g
same,"Food intake, Total",[2]; [7],7.1 ± 0.9 g
same,"Food intake, 1st hr",[2]; [8],2.2 ± 0.5 g
same,"Food intake, 2nd hr",[2]; [8],2.2 ± 0.5 g
same,"Food intake, 3rd hr",[2]; [8],3.8 ± 0.4 g
same,"Food intake, Total",[2]; [8],8.2 ± 1.1 g
same,"Food intake, 1st hr",[2]; [9],2.7 ± 0.4 g
same,"Food intake, 2nd hr",[2]; [9],1.7 ± 0.3 g
same,"Food intake, 3rd hr",[2]; [9],2.3 ± 0.5 g
same,"Food intake, Total",[2]; [9],6.7 ± 0.7 g
same,"Food intake, 1st hr",[2]; [10],4.2 ± 1.4 g
same,"Food intake, 2nd hr",[2]; [10],1.6 ± 0.4 g
same,"Food intake, 3rd hr",[2]; [10],2.3 ± 0.7 g
same,"Food intake, Total",[2]; [10],8.1 ± 2.1 g
same,"Food intake, 1st hr",[2]; [11],3.6 ± 0.9 g
same,"Food intake, 2nd hr",[2]; [11],1.4 ± 0.2 g
same,"Food intake, 3rd hr",[2]; [11],1.9 ± 0.4 g
same,"Food intake, Total",[2]; [11],6.9 ± 1.2 g
same,3-Day Body Weight Gain,[3],-22.4 ± 2.3 g
same,3-Day Food Consumption,[3],10.5 ± 1.3 g
same,"Carcass Lipid, % of carcass weight",[4]; [12],4.01 ± 0.45 % of carcass weight
same,"Carcass Lipid, total",[4]; [12],7.01 ± 0.92 g
same,"Carcass Nitrogen, % of carcass weight",[4]; [12],4.10 ± 0.14 % of carcass weight
same,"Carcass Nitrogen, total",[4]; [12],7.16 ± 0.29 g
same,Carcass Weight,[4]; [12],176 ± 8 g
same,"Carcass Lipid, % of carcass weight",[4]; [13],1.94 ± 0.13 % of carcass weight
same,"Carcass Lipid, total",[4]; [13],2.74 ± 0.19 g
same,"Carcass Nitrogen, % of carcass weight",[4]; [13],4.27 ± 0.22 % of carcass weight
same,"Carcass Nitrogen, total",[4]; [13],6.57 ± 0.30 g
same,Carcass Weight,[4]; [13],155 ± 4 g
same,"Serum, total per ml",Stomach Emptying,1.9 ± 0.4 dpm × 10^3
same,"Stomach Contents, total per stomach",Stomach Emptying,2760 ± 69 dpm × 10^3
same,"Food Consumption, % of control",[5]; [14],82 % of control
same,Food consumption,[5]; [14],607 ± 193 g
same,Food consumption,"[5]; test days -2, -1, before dosing (control period)",743 ± 54 g
